In patent US12077503B2, “Substituted cyclic amides and their use as herbicides” (FMC CORPORATION, priority 2015, dated 2024):

Legend:
Type in all cases: in vivo
[1] = system: blackgrass (Alopecurus myosuroides); assay: Test A postemergence; conditions: Alopecurus myosuroides, post-emergence, 240 h; for pest or weed control at 125 g/ha: 125 g ai/ha, postemergence, visual injury on 0 to 100 scale (0 no effect, 100 complete control), approx. 10 d, read-out: Blackgrass plant response rating; for pest or weed control at 31 g/ha: Postemergence, 31 g ai/ha, visual injury after approx. 10 d, 0 to 100 scale, 0 no effect, 100 complete control, read-out: Plant response rating, Blackgrass
In short: (§1)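 Preemergence directed soil spray on seeded pots, or postemergence application to plants 2–10 cm, one- to two-leaf. Solvent mixture non-phytotoxic, with surfactant. Scored ~10 d later, visually, 0–100 vs untreated.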

[2] = system: ryegrass, Italian (Italian ryegrass, Lolium multiflorum); assay: Test A postemergence; conditions: Lolium multiflorum, post-emergence, 240 h; for pest or weed control at 125 g/ha: 125 g ai/ha, postemergence, visual injury on 0 to 100 scale (0 no effect, 100 complete control), approx. 10 d, read-out: Ryegrass, Italian plant response rating; for pest or weed control at 31 g/ha: Postemergence, 31 g ai/ha, visual injury after approx. 10 d, 0 to 100 scale, 0 no effect, 100 complete control, read-out: Plant response rating, Ryegrass, Italian
In short: as §1

Kochia (Kochia scoparia) [3] = assay: Test A postemergence; conditions: Bassia scoparia, post-emergence, 240 h; for pest or weed control at 125 g/ha: 125 g ai/ha, postemergence, visual injury on 0 to 100 scale (0 no effect, 100 complete control), approx. 10 d, read-out: Kochia plant response rating; for pest or weed control at 31 g/ha: Postemergence, 31 g ai/ha, visual injury after approx. 10 d, 0 to 100 scale, 0 no effect, 100 complete control, read-out: Plant response rating, Kochia
In short: as §1

[4] = system: ragweed (common ragweed, Ambrosia elatior); assay: Test A postemergence; conditions: Ambrosia artemisiifolia, post-emergence, 240 h; for pest or weed control at 125 g/ha: 125 g ai/ha, postemergence, visual injury on 0 to 100 scale (0 no effect, 100 complete control), approx. 10 d, read-out: Ragweed plant response rating; for pest or weed control at 31 g/ha: Postemergence, 31 g ai/ha, visual injury after approx. 10 d, 0 to 100 scale, 0 no effect, 100 complete control, read-out: Plant response rating, Ragweed
In short: as §1

[5] = system: giant foxtail (Setaria faberii); assay: Test A postemergence; conditions: Setaria faberi, post-emergence, 240 h; for pest or weed control at 125 g/ha: 125 g ai/ha, postemergence, visual injury on 0 to 100 scale (0 no effect, 100 complete control), approx. 10 d, read-out: Foxtail, Giant plant response rating; for pest or weed control at 31 g/ha: Postemergence, 31 g ai/ha, visual injury after approx. 10 d, 0 to 100 scale, 0 no effect, 100 complete control, read-out: Plant response rating, Foxtail, Giant
In short: as §1

[6] = system: pigweed (Amaranthus retroflexus); assay: Test A postemergence; conditions: Amaranthus retroflexus, post-emergence, 240 h; for pest or weed control at 125 g/ha: 125 g ai/ha, postemergence, visual injury on 0 to 100 scale (0 no effect, 100 complete control), approx. 10 d, read-out: Pigweed plant response rating; for pest or weed control at 31 g/ha: Postemergence, 31 g ai/ha, visual injury after approx. 10 d, 0 to 100 scale, 0 no effect, 100 complete control, read-out: Plant response rating, Pigweed
In short: as §1

corn (Zea mays) = assay: Test A postemergence; conditions: Zea mays, post-emergence, 240 h; for plant injury at 125 g/ha: 125 g ai/ha, postemergence, visual injury on 0 to 100 scale (0 no effect, 100 complete control), approx. 10 d, read-out: Corn plant response rating; for Corn plant response rating (crop injury, 0 = no effect, 100 = complete kill) at 31 g/ha: Postemergence, 31 g ai/ha, visual injury after approx. 10 d, 0 to 100 scale, 100 complete control
In short: as §1

[7] = system: barnyardgrass (Echinochloa crus-galli); assay: Test A postemergence; conditions: Echinochloa crus-galli, post-emergence, 240 h; for pest or weed control at 125 g/ha: 125 g ai/ha, postemergence, visual injury on 0 to 100 scale (0 no effect, 100 complete control), approx. 10 d, read-out: Barnyardgrass plant response rating; for pest or weed control at 31 g/ha: Postemergence, 31 g ai/ha, visual injury after approx. 10 d, 0 to 100 scale, 0 no effect, 100 complete control, read-out: Plant response rating, Barnyardgrass
In short: as §1

[8] = system: wheat (Triticum aestivum); assay: Test A postemergence; conditions: Triticum aestivum, post-emergence, 240 h; for plant injury at 125 g/ha: 125 g ai/ha, postemergence, visual injury on 0 to 100 scale (0 no effect, 100 complete control), approx. 10 d, read-out: Wheat plant response rating; for plant injury at 31 g/ha: Postemergence, 31 g ai/ha, visual injury after approx. 10 d, 0 to 100 scale, 0 no effect, 100 complete control, read-out: Plant response rating, Wheat
In short: as §1

[9] = system: sedge, umbrella (small-flower umbrella sedge, Cyperus difformis); assay: Test B flooded paddy test; conditions: Cyperus difformis, 250 g ai/ha, Flood; 0 to 100 scale where 0 is no effect and 100 is complete control; read-out: Sedge, Umbrella plant response rating
In short: (§2)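 Evaluation by eye, against controls, occurred 13–15 d post-treatment in a greenhouse, using a 0 (no effect) to 100 (complete control) scale. Application was into the paddy water, 3 cm deep over the soil, on 2-leaf plants.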

rice (Oryra sativa) = assay: Test B flooded paddy test; conditions: Oryza sativa, 250 g ai/ha, Flood; 0 to 100 scale where 0 is no effect and 100 is complete control; read-out: Rice plant response rating
In short: as §2

[10] = system: ducksalad (Heteranthera limosa); assay: Test B flooded paddy test; conditions: Heteranthera limosa, 250 g ai/ha, Flood; 0 to 100 scale where 0 is no effect and 100 is complete control; read-out: Ducksalad plant response rating
In short: as §2

[11] = system: barnyardgrass (Echinochloa crus-galli); assay: Test B flooded paddy test; conditions: Echinochloa crus-galli, 250 g ai/ha, Flood; 0 to 100 scale where 0 is no effect and 100 is complete control; read-out: Barnyardgrass plant response rating
In short: as §2

[12] = system: ryegrass, Italian (Italian ryegrass, Lolium multiflorum); assay: Test A preemergence; conditions: Lolium multiflorum, pre-emergence, 240 h, 0 to 100 scale where 0 is no effect and 100 is complete control, read-out: Ryegrass, Italian plant response rating; for pest or weed control at 31 g/ha: 31 g ai/ha, Preemergence; for pest or weed control at 125 g/ha: 125 g ai/ha, preemergence, approx. 10 d
In short: as §1

Kochia (Kochia scoparia) [13] = assay: Test A preemergence; conditions: Bassia scoparia, pre-emergence, 240 h, 0 to 100 scale where 0 is no effect and 100 is complete control, read-out: Kochia plant response rating; for pest or weed control at 31 g/ha: 31 g ai/ha, Preemergence; for pest or weed control at 125 g/ha: 125 g ai/ha, preemergence, approx. 10 d
In short: as §1

[14] = system: ragweed (common ragweed, Ambrosia elatior); assay: Test A preemergence; conditions: Ambrosia artemisiifolia, pre-emergence, 240 h, 0 to 100 scale where 0 is no effect and 100 is complete control, read-out: Ragweed plant response rating; for pest or weed control at 31 g/ha: 31 g ai/ha, Preemergence; for pest or weed control at 125 g/ha: 125 g ai/ha, preemergence, approx. 10 d
In short: as §1

[15] = system: giant foxtail (Setaria faberii); assay: Test A preemergence; conditions: Setaria faberi, pre-emergence, 240 h, 0 to 100 scale where 0 is no effect and 100 is complete control, read-out: Foxtail, Giant plant response rating; for pest or weed control at 31 g/ha: 31 g ai/ha, Preemergence; for pest or weed control at 125 g/ha: 125 g ai/ha, preemergence, approx. 10 d
In short: as §1

[16] = system: pigweed (Amaranthus retroflexus); assay: Test A preemergence; conditions: Amaranthus retroflexus, pre-emergence, 240 h, 0 to 100 scale where 0 is no effect and 100 is complete control, read-out: Pigweed plant response rating; for pest or weed control at 31 g/ha: 31 g ai/ha, Preemergence; for pest or weed control at 125 g/ha: 125 g ai/ha, preemergence, approx. 10 d
[17] = system: barnyardgrass (Echinochloa crus-galli); assay: Test A preemergence; conditions: Echinochloa crus-galli, pre-emergence, 240 h, 0 to 100 scale where 0 is no effect and 100 is complete control, read-out: Barnyardgrass plant response rating; for pest or weed control at 31 g/ha: 31 g ai/ha, Preemergence; for pest or weed control at 125 g/ha: 125 g ai/ha, preemergence, approx. 10 d
In short: as §1

CSc1ccccc1NC(=O)[C@H]1C(=O)N(C)C[C@@H]1c1ccc(F)c(OC(C)C)c1 [Compound 1076]
0%: pest or weed control at 31 g/ha [1] | pest or weed control at 125 g/ha [2] | pest or weed control at 31 g/ha [2] | pest or weed control at 125 g/ha (Kochia (Kochia scoparia) [3]) | pest or weed control at 31 g/ha (Kochia (Kochia scoparia) [3]) | pest or weed control at 125 g/ha [4] | pest or weed control at 31 g/ha [4] | pest or weed control at 31 g/ha [5] | pest or weed control at 125 g/ha [6] | pest or weed control at 31 g/ha [6] | plant injury at 125 g/ha (corn (Zea mays)) | Corn plant response rating (crop injury, 0 = no effect, 100 = complete kill) at 31 g/ha (corn (Zea mays)) | pest or weed control at 31 g/ha [7] | plant injury at 125 g/ha [8] | plant injury at 31 g/ha [8] | pest or weed control at 250 g/ha [9] | pest or weed control at 31 g/ha [12] | pest or weed control at 125 g/ha [12] | pest or weed control at 31 g/ha (Kochia (Kochia scoparia) [13]) | pest or weed control at 125 g/ha (Kochia (Kochia scoparia) [13]) | pest or weed control at 125 g/ha [14] | pest or weed control at 31 g/ha [16] | pest or weed control at 31 g/ha [17]
90%: pest or weed control at 250 g/ha [10] | pest or weed control at 125 g/ha [17]
10%: pest or weed control at 31 g/ha [14]
80%: pest or weed control at 31 g/ha [15]
100%: pest or weed control at 125 g/ha [15]
20%: pest or weed control at 125 g/ha [1] | pest or weed control at 250 g/ha [11] | pest or weed control at 125 g/ha [16]
50%: pest or weed control at 125 g/ha [5] | pest or weed control at 125 g/ha [7]
40%: pest or weed control at 250 g/ha (rice (Oryra sativa))

Cc1c(F)cccc1NC(=O)[C@H]1C(=O)N(C)C[C@@H]1c1cc(C(F)F)cs1 [Compound 1089]
0%: pest or weed control at 31 g/ha [1] | pest or weed control at 125 g/ha [2] | pest or weed control at 31 g/ha [2] | pest or weed control at 125 g/ha (Kochia (Kochia scoparia) [3]) | pest or weed control at 31 g/ha (Kochia (Kochia scoparia) [3]) | pest or weed control at 31 g/ha [4] | pest or weed control at 125 g/ha [6] | pest or weed control at 31 g/ha [6] | Corn plant response rating (crop injury, 0 = no effect, 100 = complete kill) at 31 g/ha (corn (Zea mays)) | plant injury at 31 g/ha [8] | pest or weed control at 250 g/ha [9] | pest or weed control at 250 g/ha (rice (Oryra sativa)) | pest or weed control at 31 g/ha [12] | pest or weed control at 31 g/ha (Kochia (Kochia scoparia) [13]) | pest or weed control at 31 g/ha [14] | pest or weed control at 31 g/ha [16] | pest or weed control at 125 g/ha [16]
10%: pest or weed control at 125 g/ha [12]
85%: pest or weed control at 250 g/ha [10]
80%: pest or weed control at 31 g/ha [5]
20%: pest or weed control at 125 g/ha [4] | pest or weed control at 125 g/ha (Kochia (Kochia scoparia) [13])
60%: pest or weed control at 31 g/ha [7] | pest or weed control at 125 g/ha [14]
90%: pest or weed control at 125 g/ha [5] | pest or weed control at 125 g/ha [7] | pest or weed control at 250 g/ha [11] | pest or weed control at 31 g/ha [17] | pest or weed control at 125 g/ha [17]
30%: pest or weed control at 125 g/ha [1] | plant injury at 125 g/ha (corn (Zea mays)) | plant injury at 125 g/ha [8]
100%: pest or weed control at 31 g/ha [15] | pest or weed control at 125 g/ha [15]
